# Where two headings read alike, the source gives them in different places.
# Assays:
# [1] = test system: pig livers in vitro; details: 0.5 ml each; after 24 hours
# Excerpt: Twelve pig livers purchased from the market were divided into 4 groups, 3 in each group. A puncture needle was punctured to the center of the liver tissue and then connected with an automatic microinjecting pump.
# [2] = test system: liver of hogs in vivo; details: 1.0 ml each into hog liver; 1 week after injection
# Excerpt: Experiment in vivo: Nine hogs (females and males) with average body weight of 70 kg were fed in an enclosed area. The hogs were divided into 3 groups, 3 hogs in each group. The hair on the location of liver was shaved and the skin was sterilized. […] The animals were dissected 1 week after the injection.
# [3] = test system: S-180 sarcomas; details: forty-eight hours after injection; for Diameters of coagulating necrotic area / Gross shapes: 0.05 ml each into tumor 1 cm in size
# Excerpt: S-180 sarcomas were implanted into the hypodermal tissues of mice of Kun Ming species. When the tumor grew into 1 cm in size, a puncture needle was punctured into the center of the tumor and then connected with an automatic micro-injecting pump.
# [4] = test system: pig liver in vitro
# Protocol: Thirty pig livers purchased from the market were divided into 10 groups, 3 in each group. […] One milliliter (1 ml) of hydrochloric acid solutions, (the concentrations being 1.8 wt %, 3.6 wt %, 7.2 wt %, 10.8 wt %, 14.4 wt %, 18 wt %, 25.2 wt %), and 1 ml , 0.5 ml, 0.1 ml respectively, of analytical pure hydrochloric acid were injected slowly to the […] of different groups, at a speed of 0.3 ml/min. The gross specimens were observed and the average value of the diameters of coagulated areas was determined.
# [5] = test system: lungs of hogs
# Excerpt: The lung of the animal was dissected 1 week after the injection.
# [6] = test system: primary bronchopulmonary carcinoma
# Protocol: Two cases of primary bronchopulmonary carcinoma which were pathologically confirmed were chosen. One was a case of adenocarcinoma, the other was a case of adenous prickle cell carcinoma. The sizes of the two tumors were 2.0×2.0 cm and 2.5×2.0 cm respectively. After CT location, guided by CT, percutaneous puncture was carried out on each case; the needle reached the center of the tumor and connected with an automatic micro-injecting pump, 1.5, 2.0 ml of 18 wt % HCl were injected into the tumors at a speed of 0.2 ml/min.
# [7] = test system: cancer cells; assay: Cultivation of cancer cells in vitro together with gastric juice; assay type: cell-based
# [8] = test system: pig liver in vivo; details: for diameters of coagulated areas / pathological changes: 1 ml of 3.6% hydrochloric acid
# Excerpt: Ten hogs (females and males), with body weights of 70 kg on average, were fed in an enclosed area. The hair on the location of the liver of each hog was shaved and the skin sterilized guided by B-type ultrasonography. The puncture needle was punctured through the skin to the liver and then the needle was connected with an automatic micro-injecting pump. […] The animal was dissected at 1 week, 4 weeks, 12 weeks and 24 weeks after injection, and the shapes of the coagulating necrotic areas were observed and the diameters of the areas were measured. […] Then the liver tissue including normal tissue and coagulating necrotic tissue was fixed with formalin. Paraffin sections were prepared and the histopathological changes were observed under a microscope. […] Under a microscope, the structure of coagulating necrotic liver tissue was divided into two layers: the necrotic area in the center, and the surrounding reacting area.
# [9] = test system: W256 sarcoma
# Protocol: Rats, female and males, 500 g each in body weight, were fed routinely. Hypodermic implantation of W256 sarcoma was carried out. Sarcoma, 5 cm in diameter, was chosen. One (1.0) ml of 18 wt % HCl was slowly injected into the tumor. Twenty-four hours after injection, the rats were dissected, and the tumors were observed.
# [10] = test system: skin of guinea pig; details: 0.2 ml of 3.6 wt % HCl hypodermal
# Protocol: Six guinea pigs, female and males, 500 g each in body weight, were fed in the routine way. The guinea pig was anesthetized by ether. 0.2 ml of 3.6 wt % HCl was injected into the hypodermal tissue of the guinea pig.
# [11] = test system: abdominal hypodermal tissue of mice
# Protocol: Thirty mice were used in the experiment. 0.05 ml of 3.8 wt % HCl was injected into the abdominal hypodermal tissue of each of them. […] Injection of 0.05 ml of normal saline was given to each of the remaining 6 mice which served as the control group. Normal saline was injected into the corresponding site where HCl had been injected to the other experimental mice.
# [12] = test system: hogs
# Protocol: Twenty-seven hogs, raised in an enclosed area, were divided into 9 groups—3 hogs in each group. 18 wt % HCl was injected into the livers of the hogs at a rate of 0.1 ml/ min, 0.5 ml/min, 1 ml/min respectively, and the doses were 0.5 ml, 1 ml, 3 ml separately. One week after the injection, the animals were dissected.
# [13] = test system: primary liver cancer
# [14] = test system: recurrent carcinoma of breast; details: 1.0 ml of 18 wt % HCl, treated three times; tumor 2.0 cm×1.5 cm
# [15] = test system: metastatic tumor of the adrenal gland from pulmonary carcinoma; details: 1.0 ml of 18 wt % HCl, treated three times
# [16] = test system: metastatic tumor of the left lobe of the brain from pulmonary adenocarcinoma; details: 1.0 ml of 18 wt % HCl, two times; tumor 1.9 cm×1.9 cm before; 3 months after treatment
# [17] = test system: kidney cancer; details: 1.5 ml of 18 wt % HCl, 3 months after treatment
# Protocol: Treatment of kidney cancer: guided by CT, the puncture needle hit the center of the tumor, 1.5 ml of 18 wt % HCl was injected into the tumor slowly.
# [18] = test system: cancerous pain due to advanced cancers; details: 3.6 wt % HCl to block and damage the nerves
# [19] = 1.5 ml-2.0 ml of 18 wt % HCl with i.v. 5 wt % sodium bicarbonate, 4 patients
# [20] = 1.5 ml-2.0 ml of 18 wt % HCl, one week after injection
smiles,measurement,setting,value
"CCO [100% absolute alcohol, absolute alcohol]",diameter of coagulating necrotic area,[1],0.5 cm
same,gross shape,[1],"spherical, white, the border"
same,diameter of coagulating necrotic area,[2],0.5 cm
same,gross examination of coagulating necrotic area,[2],"spherical, white in color"
same,Diameters of coagulating necrotic area,[3],0.41 cm
same,Gross shapes,[3],"spherical, white in color, the border"
Cl [hydrochloric acid],Diameter of coagulated areas,"[4]; 0.1 ml of analytic pure hydrochloric acid (36%), 24 hours after injection",1.5 cm
same,Diameter of coagulated areas,"[4]; 0.1 ml of analytic pure hydrochloric acid (36%), immediately after injection",0.2 cm
same,Diameter of coagulated areas,"[4]; 0.5 ml of analytic pure hydrochloric acid (36%), 24 hours after injection",3.9 cm
same,Diameter of coagulated areas,"[4]; 0.5 ml of analytic pure hydrochloric acid (36%), immediately after injection",1.5 cm
same,Diameter of coagulated area,"[4]; 1 ml of 1.8 % hydrochloric acid, 24 hours after injection",0.75 cm
same,Diameter of coagulated area,"[4]; 1 ml of 1.8 % hydrochloric acid, immediately after injection",0.7 cm
same,Diameter of coagulated area,"[4]; 1 ml of 3.6 % hydrochloric acid, 24 hours after injection",1.4 cm
same,Diameter of coagulated area,"[4]; 1 ml of 3.6 % hydrochloric acid, immediately after injection",1.0 cm
same,Diameter of coagulated area,"[4]; 1 ml of 7.2 % hydrochloric acid, 24 hours after injection",1.9 cm
same,Diameter of coagulated area,"[4]; 1 ml of 7.2 % hydrochloric acid, immediately after injection",1.3 cm
same,Diameter of coagulated area,"[4]; 1 ml of 10.8 % hydrochloric acid, 24 hours after injection",2.2 cm
same,Diameter of coagulated area,"[4]; 1 ml of 10.8 % hydrochloric acid, immediately after injection",1.5 cm
same,Diameter of coagulated area,"[4]; 1 ml of 14.4 % hydrochloric acid, 24 hours after injection",3.1 cm
same,Diameter of coagulated area,"[4]; 1 ml of 14.4 % hydrochloric acid, immediately after injection",1.8 cm
same,Diameter of coagulated area,"[4]; 1 ml of 18 % hydrochloric acid, 24 hours after injection",4.8 cm
same,Diameter of coagulated area,"[4]; 1 ml of 18 % hydrochloric acid, immediately after injection",2.2 cm
same,Diameter of coagulated area,"[4]; 1 ml of 25.2 % hydrochloric acid, 24 hours after injection",5.2 cm
same,Diameter of coagulated area,"[4]; 1 ml of 25.2 % hydrochloric acid, immediately after injection",2.4 cm
same,Diameter of coagulated areas,"[4]; 1.0 ml of analytic pure hydrochloric acid (36%), 24 hours after injection",5.5 cm
same,Diameter of coagulated areas,"[4]; 1.0 ml of analytic pure hydrochloric acid (36%), immediately after injection",2.8 cm
same,reaction of animal at injection,[5]; 1.0 ml of 3.6 wt % HCl into the lung at 0.3 ml/min,coughed slightly
same,diameter of coagulated (consolidated) lung tissue,"[5]; 1.0 ml of 3.6 wt % HCl, 1 week after injection",1.8 cm
same,coagulating necrotic area on dissection of the lung,"[5]; 1.0 ml of 3.6 wt % HCl, four weeks after injection",the coagulating necrotic area became smaller
same,fate of necrotic substances,"[5]; 1.0 ml of 3.6 wt % HCl, three months after injection",the necrotic substances were absorbed
same,cytological examination of needle puncture biopsy,"[6]; 1.5, 2.0 ml of 18 wt % HCl",found necrotic tissue
same,reactions during the treatment,"[6]; 1.5, 2.0 ml of 18 wt % HCl with i.v. 5% sodium bicarbonate, two patients",coughed slightly during the treatment; no other painful or toxic manifestations occurred
same,"pH value of blood, blood routine tests, liver and kidney function tests","[6]; 1.5, 2.0 ml of 18 wt % HCl, two patients",all normal
same,effect on cancer cells in culture,[7],the destruction was due to gastric acid
same,diameters of coagulated areas,[8]; 1 week after injection,1.8 cm
same,pathological changes,[8]; 1 week after injection,"necrotic area occupies most part of the area,"
same,diameters of coagulated areas,[8]; 4 weeks after injection,1.3 cm
same,pathological changes,[8]; 4 weeks after injection,"The necrotic area became smaller, infiltration"
same,diameters of coagulated areas,[8]; 12 weeks after injection,0.5 cm
same,pathological changes,[8]; 12 weeks after injection,"The necrotic area became further smaller, the"
same,animal death during the experiment,[8]; 1 ml of 3.6 wt % hydrochloric acid into hog liver,no animal died due to the treatment
same,diameter of round high level echo region at coagulated site by B-type ultrasonography,"[8]; 1 ml of 3.6 wt % hydrochloric acid, immediately after injection",2.0 cm
same,fate of necrotic substances,"[8]; 1 ml of 3.6 wt % hydrochloric acid, sixteen weeks after injection",the necrotic substances were absorbed
same,diameter of coagulating necrotic area,[1],2.2 cm
same,gross shape,[1],"spherical, grayish white in color, the"
same,diameter of coagulating necrotic area,[2],2.1 cm
same,gross examination of coagulating necrotic area,[2],spheroid
same,diameter of brown necrotic tumor tissue,"[9]; 1.0 ml of 18 wt % HCl into sarcoma 5 cm in diameter, 24 hours after injection",3.5 cm
same,death or intoxication during the treatment,[9]; 1.0 ml of 18 wt % HCl intratumoral,no death or intoxication occurred among the rats
same,histopathologic changes by microscopy,"[9]; 1.0 ml of 18 wt % HCl, 24 hours after injection",complete necrosis occurred in the necrotic area
same,Diameters of coagulating necrotic area,[3],0.76 cm
same,Gross shapes,[3],"spherical, caseous, grayish white in color,"
same,necrosis of the tumor,[3]; 0.05 ml,complete necrosis of the tumor
same,skin change after injection,[10],the skin became rough and a little exudation occurred
same,skin change three weeks later,"[10]; iodine tincture smeared, three weeks later",the surface became dry and scar was formed
same,diameter of surface of ulcer,[10]; one week after injection,1.0 cm
same,damage in the abdominal organs by dissection,[11]; 0.05 ml of 3.8 wt % HCl abdominal hypodermal,No damage was found in the abdominal organs
same,diameters of damages (ulcer-like damages of the skin),[11]; 0.05 ml of 3.8 wt % HCl then 0.05 ml normal saline (control group),1.2 cm
same,diameters of scar areas,"[11]; 0.05 ml of 3.8 wt % HCl then normal saline (control group), one week later",0.9 cm
same,coagulating necrotic ranges of the liver,"[12]; 18 wt % HCl, 0.5, 1, 3 ml at 0.1, 0.5, 1 ml/min into hog liver, one week after injection",1.2-5.2 cm
same,death or intoxication,"[12]; 18 wt % HCl, 0.5 ml-3 ml into hog liver",No death or intoxication of hog occurred
same,"pH value of blood, blood routine tests, liver and kidney function tests",[13]; [19],all normal
same,painful or toxic manifestation,[13]; [19],None of the 4 patients had painful or toxic manifestation
same,color ultrasonography of the tumor,[13]; [20],high level echo without blood flow area
same,liver cancer sensitive index α-fetoglobulin value,[13]; [20],markedly lowered
same,tumor response,[14],basically turned into necrotic tissue
same,tumor response,[15],necrosis of the tumor occurred
same,size of metastatic tumor by intensified CT,[16],0.8 cm
same,appearance of tumor on re-examination,[17],high level echo locus without blood flow
same,diameter of tumor on re-examination,[17]; tumor 3.0 cm×2.5 cm before,0.5 cm
same,relief of cancerous pain,[18],pain could be relieved
"CC(=O)O [50% acetic acid, acetic acid]",diameter of coagulating necrotic area,[1],2.0 cm
same,gross shape,[1],"lump-like, white, the border"
same,diameter of coagulating necrotic area,[2],about 1.8 cm
same,gross examination of coagulating necrotic area,[2],did not have a definite border
same,Diameters of coagulating necrotic area,[3],0.62 cm
same,Gross shapes,[3],"brown, the border was unclear,"

# From US20050048132A1, “Use of hydrochloric acid in the preparation of a medicament for the treatment of tumour” (priority 2001, published 2005)
